Assays:
Format in all cases: in vivo
corn (Zea mays) = experiment: Test A postemergence, corn; conditions: postemergence, 0 to 100 scale, 0 is no effect, 100 is complete control, approximately 10 days
Method in brief: (§1)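 Test chemicals in a solvent/surfactant mixture were applied as a preemergence directed soil spray on seeded loam–sand, or postemergence to plants 2–10 cm tall at the one- to two-leaf stage. After roughly 10 days in a greenhouse, injury was visually rated versus untreated controls on a 0 (no effect) to 100 (complete control) scale.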

rice (Oryza sativa) = experiment: Test B flooded paddy test, rice; conditions: 250 g ai/ha, Flood; visual rating after 13 to 15 days; scale 0 to 100, 0 is no effect, 100 is complete control
Method in brief: (§2)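 2-leaf plants; flood to 3 cm, dose into water, hold depth; greenhouse 13–15 d; visual score 0–100 vs controls; dash = not tested.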

[1] = system: blackgrass (Alopecurus myosuroides); experiment: Test A postemergence, blackgrass; conditions: postemergence, 0 to 100 scale, 0 is no effect, 100 is complete control, approximately 10 days
Method in brief: as §1

[2] = system: pigweed (Amaranthus retroflexus); experiment: Test A postemergence, pigweed; conditions: postemergence, 0 to 100 scale, 0 is no effect, 100 is complete control, approximately 10 days
Method in brief: as §1

[3] = system: barnyardgrass (Echinochloa crus-galli); experiment: Test A postemergence, barnyardgrass; conditions: postemergence, 0 to 100 scale, 0 is no effect, 100 is complete control, approximately 10 days
Method in brief: as §1

[4] = system: barnyardgrass (Echinochloa crus-galli); experiment: Test B flooded paddy test, barnyardgrass; conditions: 250 g ai/ha, Flood; visual rating after 13 to 15 days; scale 0 to 100, 0 is no effect, 100 is complete control
Method in brief: as §2

[5] = system: ryegrass, Italian (Italian ryegrass, Lolium multiflorum); experiment: Test A postemergence, Italian ryegrass; conditions: postemergence, 0 to 100 scale, 0 is no effect, 100 is complete control, approximately 10 days
Method in brief: as §1

[6] = system: foxtail, giant (giant foxtail, Setaria faberii); experiment: Test A preemergence, giant foxtail; conditions: Preemergence, 0 to 100 scale (0 no effect, 100 complete control)
Method in brief: as §1

[7] = system: barnyardgrass (Echinochloa crus-galli); experiment: Test A preemergence, barnyardgrass; conditions: Preemergence, 0 to 100 scale (0 no effect, 100 complete control)
Method in brief: as §1

[8] = system: ragweed (common ragweed, Ambrosia elatior); experiment: Test A postemergence, ragweed; conditions: postemergence, 0 to 100 scale, 0 is no effect, 100 is complete control, approximately 10 days
Method in brief: as §1

[9] = system: sedge, umbrella (small-flower umbrella sedge, Cyperus difformis); experiment: Test B flooded paddy test, umbrella sedge; conditions: 250 g ai/ha, Flood; visual rating after 13 to 15 days; scale 0 to 100, 0 is no effect, 100 is complete control
Method in brief: as §2

[10] = system: foxtail, giant (giant foxtail, Setaria faberii); experiment: Test A postemergence, giant foxtail; conditions: postemergence, 0 to 100 scale, 0 is no effect, 100 is complete control, approximately 10 days
Method in brief: as §1

[11] = system: ducksalad (Heteranthera limosa); experiment: Test B flooded paddy test, ducksalad; conditions: 250 g ai/ha, Flood; visual rating after 13 to 15 days; scale 0 to 100, 0 is no effect, 100 is complete control
Method in brief: as §2

kochia (Kochia scoparia) [12] = experiment: Test A preemergence, kochia; conditions: Preemergence, 0 to 100 scale (0 no effect, 100 complete control)
Method in brief: as §1

[13] = system: wheat (Triticum aestivum); experiment: Test A postemergence, wheat; conditions: postemergence, 0 to 100 scale, 0 is no effect, 100 is complete control, approximately 10 days
Method in brief: as §1

kochia (Kochia scoparia) [14] = experiment: Test A postemergence, kochia; conditions: postemergence, 0 to 100 scale, 0 is no effect, 100 is complete control, approximately 10 days
Method in brief: as §1

[15] = system: ragweed (common ragweed, Ambrosia elatior); experiment: Test A preemergence, ragweed; conditions: Preemergence, 0 to 100 scale (0 no effect, 100 complete control)
Method in brief: as §1

[16] = system: ryegrass, Italian (Italian ryegrass, Lolium multiflorum); experiment: Test A preemergence, Italian ryegrass; conditions: Preemergence, 0 to 100 scale (0 no effect, 100 complete control)
Method in brief: as §1

[17] = system: galium (catchweed bedstraw, Galium aparine); experiment: Test A postemergence, galium; conditions: postemergence, 0 to 100 scale, 0 is no effect, 100 is complete control, approximately 10 days
Method in brief: as §1

[18] = system: pigweed (Amaranthus retroflexus); experiment: Test A preemergence, pigweed; conditions: Preemergence, 0 to 100 scale (0 no effect, 100 complete control)
Method in brief: as §1

SMILES | Plant response rating, Corn (corn (Zea mays); 31 g ai/ha) | Plant response rating, Corn (corn (Zea mays); 125 g ai/ha) | Plant response rating, Rice (rice (Oryza sativa)) | Plant response rating, Blackgrass ([1]; 31 g ai/ha) | Plant response rating, Blackgrass ([1]; 125 g ai/ha) | Plant response rating, Pigweed ([2]; 31 g ai/ha) | Plant response rating, Pigweed ([2]; 125 g ai/ha) | Plant response rating, Barnyardgrass ([3]; 31 g ai/ha) | Plant response rating, Barnyardgrass ([3]; 125 g ai/ha) | Plant response rating, Barnyardgrass [4] | Plant response rating, Ryegrass, Italian ([5]; 31 g ai/ha) | Plant response rating, Ryegrass, Italian ([5]; 125 g ai/ha) | Plant response rating, Foxtail, Giant ([6]; 31 g ai/ha) | Plant response rating, Foxtail, Giant ([6]; 125 g ai/ha) | Plant response rating, Barnyardgrass ([7]; 31 g ai/ha) | Plant response rating, Barnyardgrass ([7]; 125 g ai/ha) | Plant response rating, Ragweed ([8]; 31 g ai/ha) | Plant response rating, Ragweed ([8]; 125 g ai/ha) | Plant response rating, Sedge, Umbrella [9] | Plant response rating, Foxtail, Giant ([10]; 31 g ai/ha) | also measured
FC(F)(F)CCCOc1c(Oc2ncc(Cl)cn2)cccc1C(F)(F)F [Compound 54] | 10 | 20 | 40 | 0 | 10 | 20 | 80 | 10 | 20 | 40 | 0 | 20 | 50 | 100 | 20 | 90 | 0 | 10 | 100 | 10 | Plant response rating, Foxtail, Giant ([10]; 125 g ai/ha): 70; Plant response rating, Ducksalad [11]: 100; Plant response rating, Kochia (kochia (Kochia scoparia) [12]; 31 g ai/ha): 0; Plant response rating, Kochia (kochia (Kochia scoparia) [12]; 125 g ai/ha): 30; Plant response rating, Wheat ([13]; 31 g ai/ha): 0; Plant response rating, Wheat ([13]; 125 g ai/ha): 10; Plant response rating, Kochia (kochia (Kochia scoparia) [14]; 31 g ai/ha): 10; Plant response rating, Kochia (kochia (Kochia scoparia) [14]; 125 g ai/ha): 50; Plant response rating, Ragweed ([15]; 31 g ai/ha): 0; Plant response rating, Ragweed ([15]; 125 g ai/ha): 0; Plant response rating, Ryegrass, Italian ([16]; 31 g ai/ha): 10; Plant response rating, Ryegrass, Italian ([16]; 125 g ai/ha): 80; Plant response rating, Galium ([17]; 31 g ai/ha): 20; Plant response rating, Galium ([17]; 125 g ai/ha): 50; Plant response rating, Pigweed ([18]; 31 g ai/ha): 20; Plant response rating, Pigweed ([18]; 125 g ai/ha): 100
Cc1cccc(Oc2ncc(Cl)cn2)c1OCCCC(F)(F)F [Compound 55] | 0 | 20 | 45 | 0 | 20 | 10 | 30 | 10 | 20 | 40 | 0 | 20 | 10 | 80 | 10 | 70 | 0 | 0 | 95 | 20 | Plant response rating, Foxtail, Giant ([10]; 125 g ai/ha): 60; Plant response rating, Ducksalad [11]: 100; Plant response rating, Kochia (kochia (Kochia scoparia) [12]; 31 g ai/ha): 0; Plant response rating, Kochia (kochia (Kochia scoparia) [12]; 125 g ai/ha): 60; Plant response rating, Wheat ([13]; 31 g ai/ha): 0; Plant response rating, Wheat ([13]; 125 g ai/ha): 0; Plant response rating, Kochia (kochia (Kochia scoparia) [14]; 31 g ai/ha): 10; Plant response rating, Kochia (kochia (Kochia scoparia) [14]; 125 g ai/ha): 20; Plant response rating, Ragweed ([15]; 31 g ai/ha): 0; Plant response rating, Ragweed ([15]; 125 g ai/ha): 0; Plant response rating, Ryegrass, Italian ([16]; 31 g ai/ha): 0; Plant response rating, Ryegrass, Italian ([16]; 125 g ai/ha): 10; Plant response rating, Galium ([17]; 31 g ai/ha): 0; Plant response rating, Galium ([17]; 125 g ai/ha): 20; Plant response rating, Pigweed ([18]; 31 g ai/ha): 0; Plant response rating, Pigweed ([18]; 125 g ai/ha): 50

— US10485235B2, “Aryloxypyrimidinyl ethers as herbicides” (FMC Corporation, priority 2015, dated 2019)
